We go through eight compounds from PubChem BioAssay (NCI).

Test systems include DU-145 prostate; HCT-116 colon; IGROV1 ovarian; MCF7 breast; MOLT-4 leukemia; NCI-H522 lung; OVCAR-3 ovarian; OVCAR-5 ovarian; SF-268 CNS; SK-MEL-2 melanoma.
Test in all cases: NCI anticancer screen, dose series, 48 h

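Method: 48-hour compound exposure of cells in 96-well plates, five concentrations, linear interpolation of endpoints. GI50 is the concentration that inhibits growth by half. TGI: total growth inhibition.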

As to `COc1cccc2c1ccc1nc3cccc(C(=O)N[C@H](C)CN(C)C)c3nc12`, the GI50 in the assay on DU-145 prostate was 0.0735 µM; with HCT-116 colon, 0.0379 µM; in the assay on IGROV1 ovarian, 0.0549 µM; with MCF7 breast, 0.0341 µM; with MOLT-4 leukemia, 0.0454 µM; in the assay on NCI-H522 lung, 0.0579 µM. Further, the GI50 was 0.102 µM in the assay with OVCAR-3 ovarian, 0.154 µM with OVCAR-5 ovarian, 0.0654 µM in the assay on SF-268 CNS and 0.175 µM in the assay on SK-MEL-2 melanoma. Further, the TGI amounted to 3.71 µM in the assay on DU-145 prostate; 0.508 µM in the assay on HCT-116 colon; 11.9 µM in the assay with IGROV1 ovarian; 1.58 µM in the assay on MCF7 breast; 4.85 µM with MOLT-4 leukemia; 0.279 µM in the assay with NCI-H522 lung. The TGI in the assay on OVCAR-3 ovarian turned out to be 0.511 µM; with OVCAR-5 ovarian it was 11.3 µM; in the assay with SF-268 CNS, 0.916 µM; in the assay on SK-MEL-2 melanoma it was 0.643 µM.

As for `Cc1cc(NCCN(C(C)C)C(C)C)nc(/N=C(\N)Nc2ccc(Cl)c(C(F)(F)F)c2)n1`, the GI50 in the assay on DU-145 prostate is 1.47 µM; in the assay with HCT-116 colon, 0.275 µM; with IGROV1 ovarian, 0.819 µM; in the assay with MCF7 breast, 0.269 µM; in the assay with MOLT-4 leukemia, 0.383 µM; in the assay with NCI-H522 lung, 0.206 µM. For the same compound, the GI50 in the assay on OVCAR-3 ovarian was 1.32 µM; with OVCAR-5 ovarian, 2.36 µM; with SF-268 CNS it was 0.67 µM; with SK-MEL-2 melanoma, 0.208 µM. Besides, the TGI in the assay on DU-145 prostate amounted to 3.04 µM; with HCT-116 colon, 2.38 µM; in the assay with IGROV1 ovarian, 2.75 µM; in the assay on MCF7 breast it was 0.851 µM; in the assay with MOLT-4 leukemia it was 1.47 µM; in the assay on NCI-H522 lung, 0.47 µM. Moreover, the TGI in the assay on OVCAR-3 ovarian was found to be 2.77 µM; with OVCAR-5 ovarian it was 5.24 µM; with SF-268 CNS, 1.76 µM; in the assay with SK-MEL-2 melanoma, 0.388 µM.

`CNC(=O)c1cccc2cc(Oc3ccnc4cc(OCC5(N)CC5)c(OC)cc34)ccc12`: the GI50 with DU-145 prostate is 12.1 µM; with HCT-116 colon it was 5.2 µM; in the assay with IGROV1 ovarian, 7.63 µM; in the assay with MCF7 breast, 3.89 µM; in the assay on MOLT-4 leukemia, 3.49 µM; with NCI-H522 lung it was 8.94 µM. Further, the GI50 in the assay on OVCAR-3 ovarian is 8.86 µM; in the assay on OVCAR-5 ovarian it was 6.94 µM; with SF-268 CNS it was 6.01 µM; in the assay with SK-MEL-2 melanoma it was 14.3 µM. The TGI in the assay on DU-145 prostate was found to be 25.5 µM; in the assay on HCT-116 colon, 17.8 µM; with IGROV1 ovarian, 28.2 µM; with MCF7 breast, 17.8 µM; in the assay on MOLT-4 leukemia, 21.6 µM; in the assay with NCI-H522 lung, 25.6 µM. For the same compound, the TGI came out at 23.7 µM with OVCAR-3 ovarian, 19.3 µM with OVCAR-5 ovarian, 24.2 µM in the assay with SF-268 CNS and 32 µM in the assay with SK-MEL-2 melanoma.

Turning to `COc1cc2c3c(n(CCCCN)c(=O)c2cc1OC)-c1cc2c(cc1C3=O)OCO2`, the GI50 was 0.147 µM in the assay on DU-145 prostate; 0.234 µM in the assay with HCT-116 colon; 1.14 µM in the assay on IGROV1 ovarian; 0.0191 µM in the assay on MCF7 breast; 0.114 µM in the assay with MOLT-4 leukemia; 0.259 µM in the assay on NCI-H522 lung. The GI50 in the assay on OVCAR-3 ovarian was 1.01 µM; in the assay on OVCAR-5 ovarian, 4.97 µM; with SF-268 CNS, 0.801 µM; in the assay on SK-MEL-2 melanoma, 6.3 µM. For the same compound, the TGI was found to be 1.03 µM in the assay on DU-145 prostate; 0.797 µM in the assay with HCT-116 colon; 5.08 µM with IGROV1 ovarian; 1.13 µM in the assay with MCF7 breast; 2.95 µM with MOLT-4 leukemia; 9.89 µM in the assay on NCI-H522 lung. For the same compound, the TGI in the assay on OVCAR-3 ovarian came out at 2.67 µM; in the assay with OVCAR-5 ovarian it was 12.3 µM; with SF-268 CNS, 5.55 µM; in the assay on SK-MEL-2 melanoma, 18 µM.

As to `O=C(Nc1cccc(-n2cc(-c3ccncc3)c(-c3ccc(Cl)c(O)c3)n2)c1)c1ccc(N2CCOCC2)c(C(F)(F)F)c1`, the GI50 is 4.2 µM in the assay on DU-145 prostate; 2.87 µM with HCT-116 colon; 9.42 µM in the assay with IGROV1 ovarian; 2.81 µM in the assay on MCF7 breast; 2.37 µM in the assay with MOLT-4 leukemia; 2.31 µM in the assay on NCI-H522 lung. Further, the GI50 is 4.81 µM in the assay on OVCAR-3 ovarian, above 50 µM in the assay on OVCAR-5 ovarian, 5.58 µM with SF-268 CNS and 2.89 µM in the assay on SK-MEL-2 melanoma. For the same compound, the TGI in the assay with DU-145 prostate was above 50 µM; in the assay with HCT-116 colon it was above 50 µM; in the assay with IGROV1 ovarian, above 50 µM; in the assay on MCF7 breast, above 50 µM; in the assay with MOLT-4 leukemia, 36.7 µM; in the assay with NCI-H522 lung, 44 µM. Also, the TGI with OVCAR-3 ovarian is above 50 µM; in the assay on OVCAR-5 ovarian, above 50 µM; with SF-268 CNS, above 50 µM; with SK-MEL-2 melanoma, 15.3 µM.

As for `COC(=O)c1ccccc1OCc1cc(=O)oc2ccc(C)cc12`, the TGI in the assay on DU-145 prostate is above 100 µM; with HCT-116 colon, above 100 µM; in the assay with IGROV1 ovarian it was above 100 µM; in the assay on MCF7 breast it was above 100 µM; in the assay with MOLT-4 leukemia it was above 100 µM; in the assay with NCI-H522 lung, 48.6 µM. Further, the TGI in the assay on OVCAR-3 ovarian is above 100 µM; in the assay on OVCAR-5 ovarian, above 100 µM; in the assay on SF-268 CNS, above 82.7 µM; in the assay on SK-MEL-2 melanoma, above 85.4 µM.

Take `COc1cccc(-n2nc(C)c3c(N/N=C(\C)c4ccncc4)ncnc32)c1`: the GI50 in the assay on DU-145 prostate is above 25 µM; in the assay on HCT-116 colon it was above 24.2 µM; in the assay with IGROV1 ovarian, above 25 µM; in the assay on MCF7 breast, above 25 µM; with MOLT-4 leukemia it was above 25 µM; with NCI-H522 lung it was above 25 µM. The GI50 in the assay on OVCAR-3 ovarian, in the assay on OVCAR-5 ovarian, with SF-268 CNS and in the assay on SK-MEL-2 melanoma was above 25 µM throughout. Further, the TGI in the assay with DU-145 prostate, in the assay with HCT-116 colon, in the assay with IGROV1 ovarian, in the assay with MCF7 breast, in the assay on MOLT-4 leukemia and in the assay on NCI-H522 lung was above 25 µM throughout. In addition, the TGI with OVCAR-3 ovarian, in the assay with OVCAR-5 ovarian, in the assay with SF-268 CNS and in the assay on SK-MEL-2 melanoma was above 25 µM each time.

For `CC1OC(OC2C[C@](O)(C(=O)CF)Cc3c(O)c4c(c(O)c32)C(=O)c2ccccc2C4=O)CC(N)C1O` (stereo not given in full), the TGI stood at 1.14 µM in the assay on DU-145 prostate; 0.388 µM in the assay on HCT-116 colon; 2.4 µM in the assay with IGROV1 ovarian; 1.08 µM in the assay with MCF7 breast; 0.0101 µM with MOLT-4 leukemia; 0.104 µM with NCI-H522 lung. The TGI turned out to be 1.49 µM in the assay with OVCAR-3 ovarian, 0.541 µM with OVCAR-5 ovarian, 1.37 µM in the assay on SF-268 CNS and 0.512 µM in the assay on SK-MEL-2 melanoma.
